Here are results for one compound from US20220362276A1, “Small Molecule Inhibitors of Viral Replication” (The Trustees of Princeton University, priority 2019, published 2022).

Each structure is given as a SMILES string. “Also recorded” adds a separate entry of the source.

For data set [1], the target named is HSP90AA1 (Hsp90α1) (Homo sapiens, UniProt P07900). In words: Two-dimensional thermal proteome profiling (CETSA) in crude cell extract. The following applies: isocotoin 0.5-30 μM, 37-66.3 °C.
The test system of data set [2] is p6/Gluc[G1634R]. Description: Dose titration against mutant replicon p6/Gluc[G1634R]. On the technique in general: Replicon systems follow genome replication, usually without infectious particles.
Data set [3] has as its system Huh7 cells. In words: ATP-based cell viability assay (CellTiterGlo). As to conditions: Huh7 cells, day 4. As to the method:
Measurement of Cytotoxicity by CellTiterGlo Assay. […] Readout was performed using a Berthold luminometer.
(In general: In ATP-based viability assays light output follows the ATP content of the culture.)

Data set [4] concerns the target T1, STOML2 (Homo sapiens, UniProt Q9UJZ1).
T1 sequence (Q9UJZ1 29-356): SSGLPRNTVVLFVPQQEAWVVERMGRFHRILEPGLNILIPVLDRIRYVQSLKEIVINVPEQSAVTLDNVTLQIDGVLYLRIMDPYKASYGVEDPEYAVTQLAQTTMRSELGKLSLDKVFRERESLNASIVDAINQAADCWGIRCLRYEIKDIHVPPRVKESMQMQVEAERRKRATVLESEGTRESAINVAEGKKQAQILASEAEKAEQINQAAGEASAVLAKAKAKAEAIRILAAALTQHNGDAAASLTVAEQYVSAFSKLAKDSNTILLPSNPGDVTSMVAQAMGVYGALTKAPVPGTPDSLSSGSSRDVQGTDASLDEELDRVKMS
In words: Two-dimensional thermal proteome profiling (CETSA) in crude cell extract. The following applies: isocotoin 0.5-30 μM, 37-66.3 °C.

The test system of data set [5] is SHEV-3/Gluc (genotype 3, swine-derived). Description: Dose titration against SHEV-3/Gluc replicon. As to conditions: genotype 3, poor replicative capacity.
Data set [6] deals with TW6196E/Gluc (genotype 4). Description: Dose titration against TW6196E/Gluc replicon. The following applies: genotype 4, poor replicative capacity.
In data set [7] the test system is p6/Gluc (HEVΔORF2/3[Gluc]) replicon, KernowC1p6 genotype 3. In words: Dose titration against p6/Gluc replicon in Huh7 cells, Gaussia luciferase readout. In kind it is cell-based, hepatitis E virus. As for the experimental part:
Gaussia luciferase assays.
Statistics—calculation of IC50. Half maximal inhibitory concentrations were calculated by graphing dose-titration data as nonlinear curve fits with three parameters using GraphPad Prism (v8.1.2).

Data set [8] has as its system full-length KernowC1p6. Description: RT-qPCR of HEV RNA, full-length KernowC1p6 in Huh7 cells. As to conditions: 6.25-25 μM isocotoin, day 6. In kind it is cell-based, hepatitis E virus. As for the experimental part:
Quantification of HEV RNA by RT-qPCR Assay. Huh7 cells were seeded 42,000 cells/well in 24-well plates. One day post-seeding, the cells were transfected with 10 ng/well KernowC1p6 or KernowC1p6-GAD in vitro transcribed RNA. The next day, the medium on the cells transfected with KernowC1p6 was changed to 0.1% DMSO medium containing 25 μM, 12.5 μM, 6.25 μM, or 0 μM isocotoin. The negative control cells transfected with KernowC1p6-GAD were maintained in medium with 0.1% DMSO. The media on the cells was changed every 2 days to fresh drug-containing or DMSO-containing media. On day 6, cells were harvested and lysed in RLT buffer using 350 μL per well. Cell lysates were homogenized by pipetting 6-7 times with a needle syringe. Total RNA was extracted using BioBasic RNA MiniPreps SuperKit (Amherst, N.Y.). RT-qPCR was performed on the samples using qScript XLT 1-Step RT-qPCR ToughMix (Quanta Bio) according to the manufacturer's instructions. In vitro transcribed KernowC1p6 RNA of known concentration was serially diluted 1:10 and included as controls to generate a standard curve to calculate absolute RNA copies/μL in the samples.

In data set [9] the target is HSP90AB1 (Hsp90β) (Homo sapiens, UniProt P08238). In words: Two-dimensional thermal proteome profiling (CETSA) in crude cell extract. As to conditions: isocotoin 0.5-30 μM, 37-66.3 °C.
Data set [10] has as its system Jc1(p7nsGluc2A) (HCV). In kind it is cell-based, hepatitis C virus. The following applies: Gluc, RLU normalized to untreated.
The subject of data set [11] is translation of T7-tagBFP-Gluc. In words: Translation inhibition assay (T7-tagBFP-Gluc RNA in Huh7 cells). In kind it is cell-based. The following applies: 4 days. From the text: Generation of T7-tagBFP-Gluc. To make the T7-TagBFP-GLuc construct, SP6-TagBFP-2A-FLuc was used as a template and the primers PU-O-6099 and PU-O-6100 were designed to partially anneal immediately upstream and downstream of the SP6 promoter. The unbound portions of PU-O-6099 and PU-O-6100 contained the T7 promoter sequence. […] Next, PCR amplification of the T7-TagBFP-2A backbone was completed using the Q5® High-Fidelity DNA Polymerase and PU-O-6101 and PU-O-6102 as the primers. […] The Gluc insert was then ligated to the T7-TagBFP-2A backbone using the In-Fusion® HD Cloning Kit.
Translation Inhibition Assay. Huh7 cells were seeded at 6,250 cells per well in 96-well format. The cells were then transfected with 50 ng T7-TagBFP-Gluc in vitro transcribed RNA per well. Five hours post-transfection, transfection medium was changed to medium containing isocotoin, ribavirin, cycloheximide, or roclagamide at 6 or 7 different concentrations. DMSO concentration was kept constant in all the wells at 0.125%. For each drug dose, triplicate wells were tested. On day four post-transfection, a luciferase assay was performed on supernatant media to measure Gluc expression.

Data set [12] deals with p6/Gluc[F470S]. In words: Dose titration against mutant replicon p6/Gluc[F470S].

Chain of HSP90AB1 (Hsp90β) (P08238 whole entry): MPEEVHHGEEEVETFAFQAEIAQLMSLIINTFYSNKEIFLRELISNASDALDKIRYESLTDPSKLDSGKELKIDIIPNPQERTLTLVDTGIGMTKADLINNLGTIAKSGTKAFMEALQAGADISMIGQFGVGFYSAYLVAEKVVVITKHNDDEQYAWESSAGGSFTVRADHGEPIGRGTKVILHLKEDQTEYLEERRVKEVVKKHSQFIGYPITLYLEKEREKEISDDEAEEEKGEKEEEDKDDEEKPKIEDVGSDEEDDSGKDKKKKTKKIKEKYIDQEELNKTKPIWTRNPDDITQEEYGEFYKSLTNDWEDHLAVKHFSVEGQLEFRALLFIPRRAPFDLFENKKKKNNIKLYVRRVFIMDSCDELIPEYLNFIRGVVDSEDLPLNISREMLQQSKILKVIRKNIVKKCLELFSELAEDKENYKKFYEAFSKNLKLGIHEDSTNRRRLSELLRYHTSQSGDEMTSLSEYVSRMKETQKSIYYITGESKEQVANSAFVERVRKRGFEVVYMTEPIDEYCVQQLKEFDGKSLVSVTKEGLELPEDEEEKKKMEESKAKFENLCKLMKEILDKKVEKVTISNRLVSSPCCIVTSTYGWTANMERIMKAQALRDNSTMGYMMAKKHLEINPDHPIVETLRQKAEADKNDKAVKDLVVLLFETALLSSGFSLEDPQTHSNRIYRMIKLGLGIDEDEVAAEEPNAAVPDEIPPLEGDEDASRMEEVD

With `COc1cc(O)cc(O)c1C(=O)c1ccccc1` [isocotoin, 4-benzoyl-5-methoxybenzene-1,3-diol], the “thermal stabilization / soluble protein fraction of HSP90AA1” value in data set [1] is on record as “thermal stabilization; also recorded: among hits showing the greatest increase in soluble protein fraction”. Also, in data set [2], the “sensitivity of p6/Gluc[G1634R], in words” value is on record as “higher sensitivity to isocotoin than to ribavirin”. For the same compound, in [3], the “doses at which cytotoxicity was displayed” value was ≥ 25 µM and the “doses up to which no cytotoxicity was displayed” value is “up to 12.5 μM”. Further, the “soluble protein fraction of STOML2” value in [4] was “among hits showing the greatest increase in soluble protein fraction”. Moreover, the “inhibition of SHEV-3/Gluc replication, in words” value in data set [5] is reported as “modest inhibitory effect; also recorded: inhibits replication”. Moreover, the “inhibition of TW6196E/Gluc replication, in words” value in [6] is “modest inhibitory effect; also recorded: inhibits replication”. Further, in [7] (Hepatitis E virus, Huh-7, 96 h), the IC50 (as a rule, the concentration that gives 50% inhibition) amounted to 6.1 µM. The “inhibition of p6/Gluc (HEV) replication, in words” value in data set [7] (Huh7 cells, supernatant Gluc) is “lower IC50 than ribavirin; also recorded: dose-dependent inhibitory effects; also recorded: dose-dependent inhibition; also recorded: more efficiently than ribavirin; also recorded: inhibits replication; also recorded: to a greater extent than ribavirin”. Moreover, the “inhibition of full-length KernowC1p6 replication, in words” value in data set [8] is given as “dose-dependent manner; also recorded: inhibits replication”. Further, the “thermal stabilization / soluble protein fraction of HSP90AB1” value in data set [9] is on record as “thermal stabilization; also recorded: relatively modest, but identifiable increase”. In addition, in [10], the “inhibition of HCV replication, in words” value is recorded as “dose-dependent inhibitory effects; also recorded: to a greater extent than ribavirin”. The “effect on translation / Gluc levels, in words” value in data set [11] is given as “did not lead to a significant decrease in Gluc levels; also recorded: do not inhibit translation”. Further, the “sensitivity of p6/Gluc[F470S], in words” value in data set [12] was “higher sensitivity to isocotoin than to ribavirin”.
